For the assay, the system named is MCA-207 fibrosarcoma tumor cells. The experiment in a line: Growth of MCA-207 tumors (Example 11). The format is in vivo, C57 mice. The conditions noted are these: ganciclovir with empty liposomes (data not shown). On the procedure: This example describes the treatment of tumors using the method of the invention. […] The general method is set out in FIG. 8.
24 female C57 mice were seeded with 100,000 MCA-207 fibrosarcoma tumor cells (provided by S. Rosenberg, National Cancer Institute, Frederick/Bethesda, MD) by intra-dermal injection on day zero. The tumor cells had been cultivated and prepared according to standard techniques using RPMI media with 10% Fetal Bovine Serum (see for example Current Protocols in Molecular Biology). Beginning on day 5, all animals were treated with the lipid/therapeutic nucleic acid formulation listed in the chart, supra. The formulation was delivered intravenously through the tail vein. 80 μg of pINEX-TK10 DNA were injected in a total volume of 200 μL. Treatments were administered on days 5, 7, 9, 11 and 13.
Beginning on day 5, all animals were treated with ganciclovir twice daily. 1 mg (˜50 mg/kg) were injected intra-peritoneally in a total volume of 200 μL PBS. Treatments continued twice daily for 12 days (see, FIG. 9(A)). Mice were monitored for tumor growth.

SMILES strings stand for the structures.

For `Nc1nc(O)c2ncn(COC(CO)CO)c2n1` [ganciclovir], the Tumor reduction result is “no effect”.
